Data published in patent US20250230193A1, “CYCLIC COMPOUND HAVING SELECTIVE KRAS INHIBITORY EFFECT ON HRAS AND NRAS” (CHUGAI SEIYAKU KABUSHIKI KAISHA, priority 2022, published 2025).
pIC50, pKd: −log10 of the molar value. Like-named read-outs stand apart in the source and are kept apart here. *1 amine or outer side, *2 acyl side, *3 side chain or, on linkers, in order; H or OH if unused. Where a SMILES comes first, the peptide text is derived from it. Bridges are numbered along the chain shown (N, C = ends). [ ]: non-standard residue; d: D form. hPhe(3,5-F2-4-CF3) = N[C@@H](CCc1cc(F)c(C(F)(F)F)c(F)c1)C(=O)O; X8 = CCCN([C@@H](Cc1ccc(OCC=[*:3])cc1)C(=O)[*:2])[*:1]; X7 = CN([C@@H](CCC=[*:3])C(=O)[*:2])[*:1]; NMeGly(cPent) = CN[C@H](C(=O)O)C1CCCC1; Hyp = O=C(O)[C@@H]1C[C@@H](O)CN1; NMeD = CN[C@@H](CC(=O)O)C(=O)O; Ac5c = NC1(C(=O)O)CCCC1; Sar = CNCC(=O)O

Legend:
[1] = target: GDP-bound KRAS wild-type protein (Homo sapiens, UniProt P01116); assay: Binding to KRAS by surface plasmon resonance (SPR), Single Cycle Kinetics; conditions: GDP-bound KRAS wild-type protein
[2] = target: GDP-bound NRAS wild-type protein (Homo sapiens, UniProt P01111); assay: Binding to NRAS by surface plasmon resonance (SPR), Single Cycle Kinetics; conditions: for NRAS/KRAS (ratio of KD value with respect to NRAS to KD value with respect to KRAS) / NRAS/KRAS (ratio of KD value for NRAS to KD value for KRAS): GDP-bound NRAS wild-type vs GDP-bound KRAS wild-type
GDP-bound NRAS wild-type protein, sequence (P01111 whole entry): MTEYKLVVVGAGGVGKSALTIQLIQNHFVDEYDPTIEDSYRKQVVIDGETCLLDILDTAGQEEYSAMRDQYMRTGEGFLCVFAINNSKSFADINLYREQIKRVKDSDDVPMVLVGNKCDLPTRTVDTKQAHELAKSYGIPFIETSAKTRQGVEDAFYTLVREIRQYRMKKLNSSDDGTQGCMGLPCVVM

[3] = target: GDP-bound HRAS wild-type protein (Homo sapiens, UniProt P01112); assay: Binding to HRAS by surface plasmon resonance (SPR), Single Cycle Kinetics; conditions: for HRAS/KRAS (ratio of KD value with respect to HRAS to KD value with respect to KRAS) / HRAS/KRAS (ratio of KD value for HRAS to KD value for KRAS): GDP-bound HRAS wild-type vs GDP-bound KRAS wild-type
GDP-bound HRAS wild-type protein, sequence (P01112 whole entry): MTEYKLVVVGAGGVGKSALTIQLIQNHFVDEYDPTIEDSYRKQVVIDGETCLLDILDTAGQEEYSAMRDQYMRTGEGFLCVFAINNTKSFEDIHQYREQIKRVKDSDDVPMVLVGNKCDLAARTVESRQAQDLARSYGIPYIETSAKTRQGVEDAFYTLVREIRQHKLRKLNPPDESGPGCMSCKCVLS

[4] = tested on: human lung cancer strain NCI-H441
[5] = read-out: NCI-H441 IC50, NCI-H441 cells, 4 days, CellTiter-Glo
[6] = SPR, GDP-bound wild-type proteins

SMILES: CC[C@H](C)[C@@H]1NC(=O)[C@H](CC(C)C)N(C)C(=O)CSC[C@@H](C(=O)N(C)C)N(C)C(=O)[C@H](C2CCCC2)N(C)C(=O)C2(CCCC2)NC(=O)[C@@H]2CCCN2C(=O)[C@H](CCc2cc(F)c(C(F)(F)F)c(F)c2)NC(=O)CN(C)C(=O)[C@H](Cc2ccc(C(F)(F)F)cc2)N2CC/C=C\C[C@@H](C2=O)N(C)C(=O)CN(C)C1=O (stereo in doubt) [PP3109]
- pKd ([1]; SPR Single Cycle Kinetics, 1:1 binding model): 5.52

SMILES: CCCN1C(=O)CN(C)C(=O)CN(C)C(=O)[C@H]([C@@H](C)CC)NC(=O)[C@@H]2CCCCOc3ccc(cc3)C[C@H]1C(=O)N(C)CC(=O)N[C@@H](CCc1cc(F)c(C(F)(F)F)c(F)c1)C(=O)N1C[C@H](OCC)C[C@H]1C(=O)NC1(CCCC1)C(=O)N(C)[C@@H](C1CCCC1)C(=O)N(C)[C@H](C(=O)N(C)C)CC(=O)N2C [PP0894]
- pKd ([1]; SPR, Single Cycle Kinetics): 11.06
- NRAS/KRAS (ratio of KD value with respect to NRAS to KD value with respect to KRAS) ([2]; KD ratio, SPR): C (A compound having a KD ratio of 0.1 or more and less than 3 is denoted as C)
- HRAS/KRAS (ratio of KD value with respect to HRAS to KD value with respect to KRAS) ([3]; KD ratio, SPR): C (A compound having a KD ratio of 0.1 or more and less than 3 is denoted as C)

SMILES: CCCN1C(=O)CN(C)C(=O)CN(C)C(=O)[C@H]([C@@H](C)CC)NC(=O)[C@@H]2CCC=CCOc3ccc(cc3)C[C@H]1C(=O)N(C)CC(=O)N[C@@H](CCc1cc(F)c(C(F)(F)F)c(F)c1)C(=O)N1C[C@H](OCC)C[C@H]1C(=O)NC1(CCCC1)C(=O)N(C)[C@@H](C1CCCC1)C(=O)N(C)[C@H](C(=O)N(C)C)CC(=O)N2C [PP0900] ([X7]I[Sar][Sar][X8][Sar][hPhe(3,5-F2-4-CF3)][Hyp](Et)[Ac5c][NMeGly(cPent)][NMeD]-NMe2; staple 1-5; lactam N-11)
- pKd ([1]; SPR, Single Cycle Kinetics): 10.92
- NRAS/KRAS (ratio of KD value with respect to NRAS to KD value with respect to KRAS) ([2]; KD ratio, SPR): C (A compound having a KD ratio of 0.1 or more and less than 3 is denoted as C)
- HRAS/KRAS (ratio of KD value with respect to HRAS to KD value with respect to KRAS) ([3]; KD ratio, SPR): C (A compound having a KD ratio of 0.1 or more and less than 3 is denoted as C)

SMILES: CCCN1C(=O)CN(C)C(=O)CN(C)C(=O)[C@H]([C@@H](C)CC)NC(=O)[C@@H]2CCCCCCC[C@@H](NC(=O)[C@@H]3C[C@@H](OCC)CN3C(=O)[C@H](CCc3cc(F)c(C(F)(F)F)c(F)c3)NC(=O)CN(C)C(=O)[C@@H]1Cc1ccc(C(F)(F)F)cc1)C(=O)N(C)[C@@H](C1CCCC1)C(=O)N(C)[C@H](C(=O)N(C)C)CC(=O)N2C [PP0925]
- pKd ([1]; SPR, Single Cycle Kinetics): 8.96
- NRAS/KRAS (ratio of KD value with respect to NRAS to KD value with respect to KRAS) ([2]; KD ratio, SPR): A (a compound having 10 or more and less than 20 is denoted as A)
- HRAS/KRAS (ratio of KD value with respect to HRAS to KD value with respect to KRAS) ([3]; KD ratio, SPR): B (a compound having 3 or more and less than 10 is denoted as B)

SMILES: CCO[C@@H]1C[C@H]2C(=O)NC3(CCC3)C(=O)N(C)[C@@H](C3CCCC3)C(=O)N(C)[C@H](C(=O)N3CCOCC3)CC(=O)N(C)[C@@H](Cc3ccccc3)C(=O)N[C@@H]([C@@H](C)CC)C(=O)N(C)CC(=O)N(C)[C@H]3CCCCCN(C3=O)[C@@H](Cc3ccc(F)cc3)C(=O)N(C)CC(=O)N[C@@H](CCc3cc(F)c(C(F)(F)F)c(F)c3)C(=O)N2C1 [PP1181]
- pKd ([1]; SPR, Single Cycle Kinetics): 9.72
- NRAS/KRAS (ratio of KD value with respect to NRAS to KD value with respect to KRAS) ([2]; KD ratio, SPR): B (a compound having 3 or more and less than 10 is denoted as B)
- HRAS/KRAS (ratio of KD value with respect to HRAS to KD value with respect to KRAS) ([3]; KD ratio, SPR): B (a compound having 3 or more and less than 10 is denoted as B)

SMILES: CC[C@H](C)[C@@H]1NC(=O)[C@H](CC(C)C)N(C)C(=O)C[C@@H](C(=O)N(C)C)N(C)C(=O)[C@H](C2CCCC2)N(C)C(=O)C2(CC(C)(C)C2)NC(=O)[C@@H]2C[C@@H](C)CN2C(=O)[C@H](CCc2ccc(C(F)(F)F)c(OC)c2)NC(=O)CN(C)C(=O)[C@H](Cc2ccc(C)cc2)N2CC/C=C\C[C@@H](C2=O)N(C)C(=O)CN(C)C1=O [PP1908]
- NRAS/KRAS (ratio of KD value for NRAS to KD value for KRAS) ([2]; KD ratio, SPR): A (a compound having 10 or more and less than 20 is denoted as A)
- HRAS/KRAS (ratio of KD value for HRAS to KD value for KRAS) ([3]; KD ratio, SPR): B (a compound having 3 or more and less than 10 is denoted as B)
- pIC50 [4]: 8.00

SMILES: CC[C@H](C)[C@@H]1NC(=O)[C@H](CC(C)C)N(C)C(=O)C[C@@H](C(=O)N(C)CC)N(C)C(=O)[C@H](C2CCCC2)N(C)C(=O)C2(CC(C)(C)C2)NC(=O)[C@@H]2C[C@@H](C)CN2C(=O)[C@H](CCc2ccc(C(F)(F)F)c(OC)c2)NC(=O)CN(C)C(=O)[C@H](Cc2ccc(C)cc2)N2CC/C=C\C[C@@H](C2=O)N(C)C(=O)CN(C)C1=O [PP1909]
- NRAS/KRAS (ratio of KD value for NRAS to KD value for KRAS) ([2]; KD ratio, SPR): A (a compound having 10 or more and less than 20 is denoted as A)
- HRAS/KRAS (ratio of KD value for HRAS to KD value for KRAS) ([3]; KD ratio, SPR): B (a compound having 3 or more and less than 10 is denoted as B)
- pIC50 [4]: 7.82

SMILES: CCO[C@@H]1C[C@H]2C(=O)NC3(CCC3)C(=O)N(C)[C@@H](C3CCCC3)C(=O)N(C)[C@H](C(=O)N(C)CC)CC(=O)N(C)[C@H]3CCCCCc4ccc(cc4)C[C@@H](C(=O)N(C)CC(=O)N[C@@H](CCc4cc(F)c(C(F)(F)F)c(F)c4)C(=O)N2C1)N1CC/C=C\C[C@@H](C1=O)N(C)C(=O)CN(C)C(=O)[C@H]([C@@H](C)CC)NC3=O [PP2117]
- NRAS/KRAS (ratio of KD value with respect to NRAS to KD value with respect to KRAS) ([2]; SPR): A (a compound having 10 or more and less than 20 is denoted as A)
- HRAS/KRAS (ratio of KD value with respect to HRAS to KD value with respect to KRAS) ([3]; SPR): A (a compound having 10 or more and less than 20 is denoted as A)
- pIC50 [4]: 7.54

SMILES: CCC[C@H]1C(=O)N[C@@H]([C@@H](C)CC)C(=O)N(C)CC(=O)N(C)[C@H]2C/C=C\CCN(C2=O)[C@@H](Cc2ccc(C(F)(F)F)cc2)C(=O)N(C)CC(=O)N[C@@H](CCc2cc(Cl)c3c(ccn3C)c2)C(=O)N2C[C@H](OCC)C[C@H]2C(=O)NC2(CC(C)(C)C2)C(=O)N(C)[C@@H](C(CC)CC)C(=O)N(C)[C@H](C(=O)N(C)C)CC(=O)N1C [PP2896]
- NRAS/KRAS (ratio of KD value with respect to GDP-bound NRAS wild-type protein to KD value with respect to KRAS) ([2]; class symbols): A (a compound having 10 or more and less than 20 is denoted as A)
- HRAS/KRAS (ratio of KD value with respect to GDP-bound HRAS wild-type protein to KD value with respect to KRAS) ([3]; class symbols): A (a compound having 10 or more and less than 20 is denoted as A)
- pIC50 [4, 5]: 7.10

SMILES: CCC(CC)[C@H]1C(=O)N(C)[C@H](C(=O)N2CCCCC2)CC(=O)N(C)[C@H]2CCC/C=C/c3ccc(cc3)C[C@@H](C(=O)N(C)CC(=O)N[C@@H](CCc3ccc(Cl)c(Cl)c3)C(=O)N3CCC[C@H]3C(=O)NC3(CC(C)(C)C3)C(=O)N1C)N1CC/C=C\C[C@@H](C1=O)N(C)C(=O)CN(C)C(=O)[C@H]([C@@H](C)CC)NC2=O [PP3055]
- NRAS/KRAS (ratio of KD value with respect to GDP-bound NRAS wild-type protein to KD value with respect to KRAS) [2, 6]: AA (a compound having 20 or more is denoted as AA)
- HRAS/KRAS (ratio of KD value with respect to GDP-bound HRAS wild-type protein to KD value with respect to KRAS) [3, 6]: A (a compound having 10 or more and less than 20 is denoted as A)
- pIC50 [4, 5]: 7.16

SMILES: CCO[C@@H]1C[C@H]2C(=O)NC3(CC(C)(C)C3)C(=O)N(C)[C@@H](C3CCCC3)C(=O)N(C)[C@H](C(=O)N3CCCCC3)CC(=O)N(C)[C@H]3CCCCc4ccc(cc4)C[C@@H](C(=O)N(C)CC(=O)N[C@@H](CCc4ccc(C(F)(F)F)c(OC)c4)C(=O)N2C1)N1CC/C=C\C[C@@H](C1=O)N(C)C(=O)CN(C)C(=O)[C@H]([C@@H](C)CC)NC3=O [PP3093, (1S,7S,11R,13S,19S,22S,26S,29S,35S,37Z)-19-cyclopentyl-11-ethoxy-7-[2-[3-methoxy-4-(trifluoromethyl)phenyl]ethyl]-3,3′,3′,18,21,25,31,34-octamethyl-29-[(1S)-1-methylpropyl]-22-(piperidine-1-carbonyl)spiro[3,6,9,15,18,21,25,28,31,34,41-undecazapentacyclo[24.15.9.2^43,46.1^35,41.0^9,13]tripentaconta-37,43(52),44,46(51)-tetraene-16,1′-cyclobutane]-2,5,8,14,17,20,24,27,30,33,53-undecone]
- NRAS/KRAS (ratio of KD value with respect to GDP-bound NRAS wild-type protein to KD value with respect to KRAS) [2, 6]: A (a compound having 10 or more and less than 20 is denoted as A)
- HRAS/KRAS (ratio of KD value with respect to GDP-bound HRAS wild-type protein to KD value with respect to KRAS) [3, 6]: A (a compound having 10 or more and less than 20 is denoted as A)
- pIC50 [4, 5]: 8.49

SMILES: CCC[C@H]1C(=O)N[C@@H]([C@@H](C)CC)C(=O)N(C2CC2)CC(=O)N(C)[C@H]2C/C=C\CCN(C2=O)[C@@H](Cc2ccc(C)cc2)C(=O)N(C)CC(=O)N[C@@H](CCc2ccc(C(F)(F)F)c(OC)c2)C(=O)N2C[C@H](OCC)C[C@H]2C(=O)N(C)C2(CCC2)C(=O)N(C)[C@@H](C2CCCC2)C(=O)N(C)[C@H](C(=O)N2CCCCC2)CC(=O)N1C [PP3096, (2S,8S,12R,14S,20S,23S,27S,30S,36S,38Z)-20-cyclopentyl-32-cyclopropyl-12-ethoxy-8-[2-[3-methoxy-4-(trifluoromethyl)phenyl]ethyl]-4,16,19,22,26,35-hexamethyl-30-[(1S)-1-methylpropyl]-23-(piperidine-1-carbonyl)-27-propyl-2-(p-tolylmethyl)spiro[1,4,7,10,16,19,22,26,29,32,35-undecazatricyclo[34.5.1.0^10,14]dotetracont-38-ene-17,1′-cyclobutane]-3,6,9,15,18,21,25,28,31,34,42-undecone]
- NRAS/KRAS (ratio of KD value with respect to GDP-bound NRAS wild-type protein to KD value with respect to KRAS) [2, 6]: A (a compound having 10 or more and less than 20 is denoted as A)
- HRAS/KRAS (ratio of KD value with respect to GDP-bound HRAS wild-type protein to KD value with respect to KRAS) [3, 6]: A (a compound having 10 or more and less than 20 is denoted as A)
- pIC50 [4]: 7.45
